Source: patent publication US20190264228A1, “TRANSFECTION METHOD COMPRISING NONVIRAL GENE DELIVERY SYSTEMS” (priority 2016, published 2019)
Where two headings read alike, the source gives them in different places.

System: HeLa cells
Experiment: Lipofection of HeLa cells with pCMV-luc / Rotifect Plus; transfection efficiency by luciferase reporter assay
Assay type: cell-based
Details: for Results in RLU (averages of three tests): inhibitors added 2 hours before and during transfection, luciferase assay after 24 hours; for Results in RLU/μg protein (averages): carried out analogously with Example 1
Description: The transfection efficiency was measured indirectly using a luciferase enzyme, which was coded by the inserted nucleic acid. This is a reporter gene system. These are established systems for detecting the transfection efficiency. Thus, the greater the amount of luciferase which can be detected in a culture vessel after lysis of the transfected cells, the greater the transfection efficiency. The amount of luciferase is detected by way of an enzyme substrate reaction in which a light quantum is released. These light quanta can be measured by suitable measurement devices known as luminometers. Since the number of light quanta measured is dependent in particular on the time interval in which the measurement took place, this light quantum amount is also denoted as “relative light units”. For comparative studies, the measurement conditions must therefore be identical. […] In both examples, for the treatment using the IKKe/TBK1 inhibitor and an inhibitor for a nucleic-acid-detecting toll-like receptor a significant improvement can be observed, and also cannot be explained merely by simple addition of the individual rates of increase for TKKe/TBK1 inhibitor and an inhibitor for a nucleic-acid-detecting toll-like receptor. This is thus clearly a synergistic effect. The following was used as general material: • 1. HeLa cells; ATTC CCL-2 • 2. Rotifect Plus, Carl Roth; Cat. No.: CL21.2 • 3. 48-well plates; Cellstar; Greiner BioOne; Cat. No.: 677180 • 4. DMEM; high-glucose; Biowest, w/stable glutamine/sodium pyruvate, Cat. No.: L103-500 • 5. Serum FBS Gold; PAN Biotech; Batch No. P130914: Cat. No.: P40-37500 • 6. pCMV-luc, Plasmid Factory, Cat. No.: PF461 • 7. Luciferase Assay Kit, Promega • 8. Dimethyl sulphoxide (DMSO for molecular biology), Fluka; Cat. No.: 41639 • 9. […] No.: 204001 • 10. […] Fluka; Cat. No.: C6628 • 11. […] TCI: Cat. No.: Q0056 The first embodiment, shown in FIG. 1, relates to lipofection of HeLa cells with a conventional commercial transfection reagent (Rotifect Plus), which were treated with the inhibitor BX795 for IKKe and TBK1 and with chloroquine as an inhibitor for TLR9 before and during the transfection. The lipofection of the HeLa cells was carried out over a 3-day period: […] HeLa cells were seeded into a 48-well plate. A cell count of 1*10^5 cells per well was plated in 250 μl complete DMEM medium (10% FCS). This was followed by incubation in a CO2 incubator (10%) for 24 hours. […] This was followed by incubation in a CO2 incubator (10%) for 24 hours. The efficiency of the transfection was determined using a luciferase assay kit. The assay was carried out in accordance with the manufacturer's instructions. The second embodiment, shown in FIG. 2, relates to lipofection of HeLa cells, which were treated with the inhibitor BX795 for IKKe and TBK1 and with quinacrine as an inhibitor for TLR9 before and during the transfection. The lipofection of the HeLa was carried out analogously with Example 1.

[1] = Example 1, FIG. 1, HeLa cells, BX795 0.5 μM, chloroquine 10 μM
[2] = Example 1, HeLa cells, BX795 0.5 μM, chloroquine 10 μM
[3] = Example 2, FIG. 2, HeLa cells, BX795 0.5 μM, quinacrine 2.5 μM
[4] = Example 2, HeLa cells, BX795 0.5 μM, quinacrine 2.5 μM
[5] = Homo sapiens, HeLa, Example 2, FIG. 2, HeLa cells, BX795 0.5 μM, quinacrine 2.5 μM, read-out: transfection efficiency normalised to transfection without inhibitors (ST = 100%)

Row | Compound | Results in RLU (averages of three tests) [1] [RLU] | increase over standard transfection [2] [%] | Results in RLU/μg protein (averages) [3] [RLU/μg protein] | increase over standard transfection [4] [%] | activity at 0.5 µM (Homo sapiens, HeLa, Example 1, FIG. 1, HeLa cells, BX795 0.5 μM, chloroquine 10 μM, read-out: transfection efficiency normalised to transfection without inhibitors (ST = 100%)) [%] | activity at 0.5 µM [5] [%] | activity at 10 µM (Homo sapiens, HeLa, read-out: transfection efficiency normalised to transfection without inhibitors (ST = 100%)) [%] | activity at 2.5 µM [5] [%]
1 | O=C(NCCCNc1nc(Nc2cccc(NC(=O)N3CCCC3)c2)ncc1I)c1cccs1 [BX795] | 50282 | 256 | 27260 | 285 | 356 | 141 | – | –
2 | CCN(CC)CCCC(C)Nc1ccnc2cc(Cl)ccc12 (stereo not drawn) [Chloroquine] | 46817 | 19 | – | – | – | – | 119 | –
3 | CCN(CC)CCCC(C)Nc1c2ccc(Cl)cc2nc2ccc(OC)cc12 (stereo not drawn) [Quinacrine, quinacrine] | – | – | 73924 | 41 | – | – | – | 385
